Assay results reported in PubChem BioAssay AID250 (DTP/NCI, 2004).
“And” between values parts separate entries of the source, which are not always exact repeats. Identical values can stand only once. Toxic doses and inconclusive results are not listed. How the source made its calls: active means survival T/C of 150% or more; inactive means T/C below 125% in these data.

Tested on: BDF1 mice, L1210 leukemia sc, survival T/C
Experiment: NCI In Vivo Anticancer Drug Screen. Data for tumor model L1210 Leukemia (subcutaneous) in B6D2F1 (BDF1) mice
Conditions: higher = longer survival
Description: The antitumor activity of compounds was measured in mice bearing transplantable tumors. Survival or tumor size were measured and the results are expressed as the measurement made in the treated group (T) divided by the measurement made in the vehicle treated control group (C). The tumor model used in this assay is L1210 Leukemia (subcutaneous) in B6D2F1 (BDF1) mice

[1] = endpoint: median survival time, dose: 65.0 mg/kg/injection, schedule: Q01DX Z (sc), vehicle: methylcellulose (MC)
[2] = endpoint: median survival time, dose: 108.0 mg/kg/injection, schedule: Q01DX Z (sc), vehicle: methylcellulose (MC)
[3] = endpoint: median survival time, dose: 180.0 mg/kg/injection, schedule: Q01DX Z (sc), vehicle: methylcellulose (MC)
[4] = endpoint: median survival time, dose: 300.0 mg/kg/injection, schedule: Q01DX Z (sc), vehicle: methylcellulose (MC)
[5] = endpoint: median survival time, dose: 500.0 mg/kg/injection, schedule: Q01DX Z (sc), vehicle: methylcellulose (MC)
[6] = endpoint: median survival time, dose: 1.08 mg/kg/injection, schedule: Q01DX Z (sc), vehicle: water
[7] = endpoint: median survival time, dose: 8.4 mg/kg/injection, schedule: Q01DX Z (sc), vehicle: water
[8] = endpoint: median survival time, dose: 39.0 mg/kg/injection, schedule: Q01DX Z (sc), vehicle: methylcellulose (MC)

Measured: T/C

CCOC(=O)NP(=O)(N1CC1(C)C)N1CC1(C)C (stereo unspecified)
inactive: [1] 91 % of control | [2] 100 % of control | endpoint: median survival time, dose: 130.0 mg/kg/injection, schedule: Q01DX Z (sc), vehicle: methylcellulose (MC) 95 % of control | [3] 100 % of control | endpoint: median survival time, dose: 216.0 mg/kg/injection, schedule: Q01DX Z (sc), vehicle: methylcellulose (MC) 100 % of control | [4] 100 % of control | [5] 100 % of control

S=c1nc[nH]c2c1ncn2C1CCCO1 (stereo unspecified)
inactive: [2] 120 % of control | [3] 120 % of control | [4] 100 % of control

COc1cc(NS(C)(=O)=O)ccc1Nc1c2ccccc2nc2c(C)cccc12
inactive: endpoint: mean survival time, dose: 2.5 mg/kg/injection, schedule: Q01DX009 (ip), vehicle: saline 100 % of control and 114 % of control | endpoint: mean survival time, dose: 5.0 mg/kg/injection, schedule: Q01DX009 (ip), vehicle: saline 108 % of control and 103 % of control | endpoint: mean survival time, dose: 10.0 mg/kg/injection, schedule: Q01DX009 (ip), vehicle: saline 99 % of control

O=C(O)c1ccc([N+](=O)[O-])cc1
inactive: endpoint: median survival time, dose: 23.0 mg/kg/injection, schedule: Q01DX Z (sc), vehicle: methylcellulose (MC) 104 % of control

O=C(Nc1ccc(NC2=NCCN2)cc1)c1ccc(C(=O)Nc2ccc(NC3=NCCN3)cc2)cc1
inactive: [6] 110 % of control | endpoint: median survival time, dose: 1.8 mg/kg/injection, schedule: Q01DX Z (sc), vehicle: water 110 % of control
active: endpoint: median survival time, dose: 5.0 mg/kg/injection, schedule: Q01DX Z (sc), vehicle: water 260 % of control | [7] 175 % of control | endpoint: median survival time, dose: 14.0 mg/kg/injection, schedule: Q01DX Z (sc), vehicle: water 150 % of control

CCCCCn1c(C)cc(/C=C\c2ccc3cc(C)ccc3[n+]2C)c1C
inactive: endpoint: median survival time, dose: 0.23 mg/kg/injection, schedule: Q01DX Z (sc), vehicle: methylcellulose (MC) 100 % of control | endpoint: median survival time, dose: 0.39 mg/kg/injection, schedule: Q01DX Z (sc), vehicle: methylcellulose (MC) 100 % of control | endpoint: median survival time, dose: 0.65 mg/kg/injection, schedule: Q01DX Z (sc), vehicle: methylcellulose (MC) 100 % of control | endpoint: median survival time, dose: 1.08 mg/kg/injection, schedule: Q01DX Z (sc), vehicle: methylcellulose (MC) 100 % of control | endpoint: median survival time, dose: 1.8 mg/kg/injection, schedule: Q01DX Z (sc), vehicle: methylcellulose (MC) 100 % of control

ClCCN(CCCl)CCNc1ccnc2cc(Cl)ccc12
inactive: [6] 100 % of control | [7] 100 % of control | endpoint: median survival time, dose: 23.0 mg/kg/injection, schedule: Q01DX Z (sc), vehicle: water 100 % of control | endpoint: median survival time, dose: 39.0 mg/kg/injection, schedule: Q01DX Z (sc), vehicle: water 100 % of control | endpoint: median survival time, dose: 65.0 mg/kg/injection, schedule: Q01DX Z (sc), vehicle: olive oil, sesame oil, peanut oil 100 % of control

O=C(O)c1cc(=O)[nH]c(=O)[nH]1
inactive: endpoint: median survival time, dose: 65.0 mg/kg/injection, schedule: Q01DX Z (sc), vehicle: saline 100 % of control | endpoint: median survival time, dose: 180.0 mg/kg/injection, schedule: Q01DX Z (sc), vehicle: saline 100 % of control | endpoint: median survival time, dose: 300.0 mg/kg/injection, schedule: Q01DX Z (sc), vehicle: saline 100 % of control

O=C(Nc1ccc(C(=O)Nc2ccc(C3=NCCN3)cc2)cc1)Nc1ccc(C2=NCCN2)cc1
inactive: [8] 95 % of control | [1] 95 % of control | [2] 100 % of control | [3] 110 % of control

OC(c1ccccc1)c1nc2ccccc2[nH]1 (stereo unspecified)
inactive: [2] 100 % of control | [3] 100 % of control | [4] 100 % of control | [5] 100 % of control | endpoint: median survival time, dose: 840.0 mg/kg/injection, schedule: Q01DX Z (sc), vehicle: methylcellulose (MC) 100 % of control

COc1cccc2c1C(=O)c1c(O)c3c(c(O)c1C2=O)CC(O)(C(C)=O)CC3OC1CC(N)C(O)C(C)O1 (stereo unspecified)
inactive: endpoint: median survival time, dose: 11.7 mg/kg/injection, schedule: Q04DX003 (ip), vehicle: saline 90 % of control | endpoint: median survival time, dose: 23.4 mg/kg/injection, schedule: Q04DX003 (ip), vehicle: saline 94 % of control | endpoint: median survival time, dose: 46.8 mg/kg/injection, schedule: Q04DX003 (ip), vehicle: saline 91 % of control | endpoint: median survival time, dose: 93.6 mg/kg/injection, schedule: Q04DX003 (ip), vehicle: saline 91 % of control | endpoint: median survival time, dose: 187.2 mg/kg/injection, schedule: Q04DX003 (ip), vehicle: saline 90 % of control

CN=C(NC)c1ccc(NC(=O)c2ccc(C(=O)Nc3ccc(C(=NC)NC)cc3)c(Cl)c2)cc1
inactive: [8] 100 % of control | [1] 100 % of control | [2] 100 % of control | [3] 105 % of control | [4] 100 % of control
